{"source": "patent US7919117B2", "about": "“Transdermal delivery of (R)-3,3-diphenylpropylamin-monoestern” (UCB Pharma GmbH, priority 2003, dated 2011)", "key": {"[1]": {"assay": "Stability at processing temperatures in the hot melt procedure", "type": "physicochemical", "conditions": "processing temperatures up to 200° C.", "from_the_text": "In a hot melt procedure the polymers and any auxiliary agents are thermally melted and mixed without the use of any solvents and the meltings spread out on foil. The active ingredient is normally introduced directly into the liquid melt. […] The dynamic viscosity may be determined in the process as described in U.S. Pat. No. 5,328,696.\nAn alternative procedure that dispenses with the use of organic solvents is the hot melt procedure. In this procedure the polymer or the contact adhesive are melted at temperatures between 70 and 200° C., preferably between 90 and 160° C. and especially preferably between 100 and 150° C. and the active ingredient introduced into the homogenized matrix melt. After a brief homogenization the adhesive matrix that contains the active ingredient is cooled again so that the active ingredient is exposed to a thermal load in general for less than 5 minutes, if desired even for 4, 3, 2 or even for less than 1 minute. Following this the active ingredient is present in the solidified polymer melt. During the process the active ingredient is broadly shielded from critical environmental influences (light, oxygen)."}, "[2]": {"assay": "Stabilization of fesoterodine in various matrices during storage (drop in concentration)", "type": "physicochemical", "conditions": "storage for 6 months at 5° C.", "protocol": "While, for example, the free base of fesoterodine is decomposed as an oil after storage for 6 months at 5° C. to around 3-4% a drop in concentration cannot be established or can only be established essentially to a lesser extent when fesoterodine is incorporated in matrices, which contain polar components."}, "[3]": {"assay": "Flow of active ingredient in the mouse skin model (in-vitro flux, horizontal diffusion cell)", "type": "in vitro ADME", "conditions": "salt introduced into the polymer layer, also with oleic acid etc. (Table 1)", "protocol": "3.1. Determination of the Flow of Active Ingredient in the Mouse Skin Model Belly and back skin in a thickness of approximately 120 to 150 μm was used in a horizontal diffusion cell for the flux measurements through mouse skin. Medium: phosphate buffer solution (0.066 molar) pH 6.2, 32° C. Release of the active ingredient was determined by HPLC."}, "[4]": {"assay": "Flow of active ingredient in the human skin model according to Tanojo (in-vitro flux)", "type": "in vitro ADME", "conditions": "see Table 1", "from_the_text": "3.2. Determination of the Flow of Active Ingredient in the Human Skin Model (a) experimental Design The determination of the fesoterodine flux through human skin was essentially performed as described in H. Tanojo et al, J. Control Rel. 45 (1997) 41-47, where instead of the silicone membrane a dialysis membrane was used [[…] Dialysemembran, type 10. 14, obtained from the company Dianorm, Munich, Germany, manufactured from neutral cellulose, exclusion size 5000 Da, thickness (dry): 25 μm; pretreatment in accordance with manufacturer information]. Human skin in a thickness of approximately 250 μm was obtained from the abdomen. A TTS with a surface of 2.545 cm^2 was applied on human skin of equal surface size, where the skin on the acceptor site lays on a […] membrane (FIG. 5). PBS (0.066 molar) was used as the acceptor phase at pH 6.2 and a temperature of 32±0.5° C. The experiments were performed over 72 hours with a 5 ml/hour flux, whereby samples were taken every 3 hours. At the times that the samples are taken, the releasing medium is replaced with fresh medium thermo stated at 32±0.5° C. and the amount of the released fesoterodine measured per HPLC. […]"}}, "data": [{"compound": "CC(C)C(=O)Oc1ccc(CO)cc1[C@H](CCN(C(C)C)C(C)C)c1ccccc1", "note": "[fesoterodine, (R)-2-[3-(1,1-diisopropylamino)-1-phenylpropyl]-4-(hydroxymethyl)phenyl isobutyrate]", "values": [{"measurement": "stability at hot melt processing temperatures (in words)", "setting": "[1]", "value": "surprisingly stable"}, {"measurement": "Decomposition of the free base stored as an oil", "setting": "[2]", "value": "3-4%"}]}, {"compound": "CC(C)C(=O)Oc1ccc(CO)cc1[C@H](CCN(C(C)C)C(C)C)c1ccccc1.O=C(O)/C=C/C(=O)O", "note": "[fumarate salt from fesoterodine, (R)-2-[3-(1,1-diisopropylamino)-1-phenylpropyl]-4-(hydroxymethyl)phenyl isobutyrate hydrogen fumarate]", "values": [{"measurement": "flux rates (in words)", "setting": "[3]", "value": "flux rates not sufficient for transdermal treatment"}]}, {"compound": "CC(C)N(CCC(c1ccccc1)c1cc(CO)ccc1O)C(C)C", "note": "(stereo not shown) [2-[3-(1,1-diisopropylamino)-1-phenylpropyl]-4-(hydroxymethyl)phenol]", "values": [{"measurement": "rate of penetration through the human skin (in words)", "setting": "[4]", "value": "very low rate of penetration"}]}]}
